For this data set, the system named is HeLa-654 cells. Kind of data set: HeLa cell assay: e-GFP fluorescence from exon skipping / cellular delivery, by flow cytometry. The format is cell-based. The note with it: Accuri C6 flow cytometer, signal reflects exon skipping and cellular uptake. Here is the method:
The height of the green fluorescent signal bars indicate different intensities based on the level of exon skipping that occurs in the nucleus of HeLa-654 cells, whether the cells are treated or untreated with test compounds. The signal intensity or size of the bar also corresponds to the effectiveness of cellular uptake (that is, delivery into the cell). […] The various treatment regimens include continuous treatment of HeLa-654 cells over time or pulse-chase treatments where a test compound is incubated with cells and then after a period of time (3 hours) is washed away from the cells and fresh, test compound-free media is added.
Results: The baseline activity of unconjugated PMO and untreated cells is shown. The peptide/PMO (PPMO) conjugates of the present disclosure all show greater cellular uptake than: 1) unconjugated PMO, and 2) untreated cells (which reveal the green fluorescent background signal). This difference in fluorescence intensity between the peptide/PMO conjugates of the present invention and the background or unconjugated-PMO indicates significant pharmacological activity of the stapled peptide/PMO conjugates.
On the technique in general: A flow cytometer gives signals particle by particle.

For “PPMO 3: (i, i+4) hexafluorobenzene-stapled peptide-PMO conjugate, sequence SEQ ID NO: 9 (GCTATTACCTTAACCCAG; all phosphorodiamidate morpholino (PMO); stapled cell-penetrating peptide conjugated to PMO)”, the “Mean FL1-H (mean fluorescence intensity of e-GFP)” value is recorded as 123,401.08.

For the origin of these results see patent publication US11672871B2, “Peptide oligonucleotide conjugates” (Sarepta Therapeutics, Inc., priority 2015, dated 2023).
